Ends that are not written are not given here. Peptide text beside a SMILES is read from it. * marks the point of attachment. Biotin = O=C1N[C@H]2[C@H](CS[C@H]2CCCCC(=O)*)N1
What was measured:
Experiment in all cases: G' assay (10 uM PL peptide), results of TABLE 7 and TABLE 12
Assay type in all cases: binding
[1] = molecular target: T1, PDZ protein (GST-PDZ fusion) (Homo sapiens, UniProt Q9BYB0); settings: PDZ SHANK3, PDZ Domain 1
T1 construct: made in house; host or cells: E. coli (DH5alpha, BL21 or JM109)
Method in brief: (§1)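 Biotinylated PL peptides at 10 uM (vs 20 uM in G^0 assay) bound to GST-PDZ fusions; PDZ protein at 5 ug/ml unless another concentration listed. Bound peptide read as A450 nm, classified 0–5 (0 = A450 0; 5 = A450 >4 repeated).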

[2] = molecular target: T2, PDZ protein (GST-PDZ fusion) (Homo sapiens, UniProt O15085); settings: PDZ KIAA0380, PDZ Domain 1
T2 construct: made in house; host or cells: E. coli (DH5alpha, BL21 or JM109)
Method in brief: as §1

[3] = molecular target: T3, PDZ protein (GST-PDZ fusion) (Homo sapiens, UniProt Q9NY99); settings: PDZ Syntrophin gamma-2, PDZ Domain 1
T3 construct: made in house; host or cells: E. coli (DH5alpha, BL21 or JM109)
T3 sequence (Q9NY99 1-539): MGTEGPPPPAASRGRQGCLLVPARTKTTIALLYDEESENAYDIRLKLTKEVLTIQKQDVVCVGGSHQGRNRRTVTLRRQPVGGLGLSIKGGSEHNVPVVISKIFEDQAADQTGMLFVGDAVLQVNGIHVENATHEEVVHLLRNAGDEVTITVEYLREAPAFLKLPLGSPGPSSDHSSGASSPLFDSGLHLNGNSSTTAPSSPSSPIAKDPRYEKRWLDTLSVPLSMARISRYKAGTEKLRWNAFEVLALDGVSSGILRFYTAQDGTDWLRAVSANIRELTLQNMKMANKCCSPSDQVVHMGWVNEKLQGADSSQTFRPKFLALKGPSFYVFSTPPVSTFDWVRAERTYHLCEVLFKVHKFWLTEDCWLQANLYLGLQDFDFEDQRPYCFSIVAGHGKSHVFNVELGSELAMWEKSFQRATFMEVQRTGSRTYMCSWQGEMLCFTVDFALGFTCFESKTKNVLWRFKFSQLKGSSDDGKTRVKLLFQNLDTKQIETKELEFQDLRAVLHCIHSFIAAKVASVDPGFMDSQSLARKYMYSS
Method in brief: as §1

T2 sequence (O15085 whole entry, the tested form may be a part): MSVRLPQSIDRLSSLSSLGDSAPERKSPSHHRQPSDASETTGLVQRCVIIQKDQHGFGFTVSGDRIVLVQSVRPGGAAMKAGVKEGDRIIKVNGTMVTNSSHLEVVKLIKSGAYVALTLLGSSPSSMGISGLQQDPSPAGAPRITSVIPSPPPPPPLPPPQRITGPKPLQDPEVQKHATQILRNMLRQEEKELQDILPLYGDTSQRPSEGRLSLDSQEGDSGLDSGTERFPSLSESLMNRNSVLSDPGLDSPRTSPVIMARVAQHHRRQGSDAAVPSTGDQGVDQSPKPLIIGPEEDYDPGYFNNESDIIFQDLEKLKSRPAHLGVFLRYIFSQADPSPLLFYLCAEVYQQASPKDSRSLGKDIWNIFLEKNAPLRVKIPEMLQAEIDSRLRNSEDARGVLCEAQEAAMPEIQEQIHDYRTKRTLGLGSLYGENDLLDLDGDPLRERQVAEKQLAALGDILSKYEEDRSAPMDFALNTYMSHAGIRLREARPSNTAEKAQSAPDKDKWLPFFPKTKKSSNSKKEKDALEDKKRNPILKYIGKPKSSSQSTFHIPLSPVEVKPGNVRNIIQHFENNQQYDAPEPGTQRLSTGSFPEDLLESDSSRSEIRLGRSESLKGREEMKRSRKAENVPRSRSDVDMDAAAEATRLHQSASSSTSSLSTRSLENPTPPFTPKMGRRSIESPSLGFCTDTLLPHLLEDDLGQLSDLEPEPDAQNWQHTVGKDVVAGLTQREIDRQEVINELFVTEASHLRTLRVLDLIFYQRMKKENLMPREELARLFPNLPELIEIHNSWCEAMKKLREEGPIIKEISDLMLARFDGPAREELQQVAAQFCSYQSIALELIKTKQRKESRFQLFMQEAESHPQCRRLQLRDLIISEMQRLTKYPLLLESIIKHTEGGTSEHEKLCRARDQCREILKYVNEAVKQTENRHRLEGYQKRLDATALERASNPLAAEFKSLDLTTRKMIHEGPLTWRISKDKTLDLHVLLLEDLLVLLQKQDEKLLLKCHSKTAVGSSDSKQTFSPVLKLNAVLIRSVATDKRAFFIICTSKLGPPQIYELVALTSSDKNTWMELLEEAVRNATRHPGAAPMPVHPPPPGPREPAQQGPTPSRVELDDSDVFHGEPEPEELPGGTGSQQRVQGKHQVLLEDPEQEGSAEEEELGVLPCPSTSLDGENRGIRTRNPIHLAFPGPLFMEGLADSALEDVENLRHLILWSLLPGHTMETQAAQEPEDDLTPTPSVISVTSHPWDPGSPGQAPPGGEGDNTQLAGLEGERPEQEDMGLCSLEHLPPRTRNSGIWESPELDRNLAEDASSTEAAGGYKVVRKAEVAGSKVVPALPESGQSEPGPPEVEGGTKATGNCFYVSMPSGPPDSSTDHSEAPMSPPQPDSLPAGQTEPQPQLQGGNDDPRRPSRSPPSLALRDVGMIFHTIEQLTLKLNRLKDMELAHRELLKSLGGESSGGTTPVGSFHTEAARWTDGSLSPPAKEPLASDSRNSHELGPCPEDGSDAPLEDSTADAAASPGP
T1 sequence (Q9BYB0 whole entry, the tested form may be a part): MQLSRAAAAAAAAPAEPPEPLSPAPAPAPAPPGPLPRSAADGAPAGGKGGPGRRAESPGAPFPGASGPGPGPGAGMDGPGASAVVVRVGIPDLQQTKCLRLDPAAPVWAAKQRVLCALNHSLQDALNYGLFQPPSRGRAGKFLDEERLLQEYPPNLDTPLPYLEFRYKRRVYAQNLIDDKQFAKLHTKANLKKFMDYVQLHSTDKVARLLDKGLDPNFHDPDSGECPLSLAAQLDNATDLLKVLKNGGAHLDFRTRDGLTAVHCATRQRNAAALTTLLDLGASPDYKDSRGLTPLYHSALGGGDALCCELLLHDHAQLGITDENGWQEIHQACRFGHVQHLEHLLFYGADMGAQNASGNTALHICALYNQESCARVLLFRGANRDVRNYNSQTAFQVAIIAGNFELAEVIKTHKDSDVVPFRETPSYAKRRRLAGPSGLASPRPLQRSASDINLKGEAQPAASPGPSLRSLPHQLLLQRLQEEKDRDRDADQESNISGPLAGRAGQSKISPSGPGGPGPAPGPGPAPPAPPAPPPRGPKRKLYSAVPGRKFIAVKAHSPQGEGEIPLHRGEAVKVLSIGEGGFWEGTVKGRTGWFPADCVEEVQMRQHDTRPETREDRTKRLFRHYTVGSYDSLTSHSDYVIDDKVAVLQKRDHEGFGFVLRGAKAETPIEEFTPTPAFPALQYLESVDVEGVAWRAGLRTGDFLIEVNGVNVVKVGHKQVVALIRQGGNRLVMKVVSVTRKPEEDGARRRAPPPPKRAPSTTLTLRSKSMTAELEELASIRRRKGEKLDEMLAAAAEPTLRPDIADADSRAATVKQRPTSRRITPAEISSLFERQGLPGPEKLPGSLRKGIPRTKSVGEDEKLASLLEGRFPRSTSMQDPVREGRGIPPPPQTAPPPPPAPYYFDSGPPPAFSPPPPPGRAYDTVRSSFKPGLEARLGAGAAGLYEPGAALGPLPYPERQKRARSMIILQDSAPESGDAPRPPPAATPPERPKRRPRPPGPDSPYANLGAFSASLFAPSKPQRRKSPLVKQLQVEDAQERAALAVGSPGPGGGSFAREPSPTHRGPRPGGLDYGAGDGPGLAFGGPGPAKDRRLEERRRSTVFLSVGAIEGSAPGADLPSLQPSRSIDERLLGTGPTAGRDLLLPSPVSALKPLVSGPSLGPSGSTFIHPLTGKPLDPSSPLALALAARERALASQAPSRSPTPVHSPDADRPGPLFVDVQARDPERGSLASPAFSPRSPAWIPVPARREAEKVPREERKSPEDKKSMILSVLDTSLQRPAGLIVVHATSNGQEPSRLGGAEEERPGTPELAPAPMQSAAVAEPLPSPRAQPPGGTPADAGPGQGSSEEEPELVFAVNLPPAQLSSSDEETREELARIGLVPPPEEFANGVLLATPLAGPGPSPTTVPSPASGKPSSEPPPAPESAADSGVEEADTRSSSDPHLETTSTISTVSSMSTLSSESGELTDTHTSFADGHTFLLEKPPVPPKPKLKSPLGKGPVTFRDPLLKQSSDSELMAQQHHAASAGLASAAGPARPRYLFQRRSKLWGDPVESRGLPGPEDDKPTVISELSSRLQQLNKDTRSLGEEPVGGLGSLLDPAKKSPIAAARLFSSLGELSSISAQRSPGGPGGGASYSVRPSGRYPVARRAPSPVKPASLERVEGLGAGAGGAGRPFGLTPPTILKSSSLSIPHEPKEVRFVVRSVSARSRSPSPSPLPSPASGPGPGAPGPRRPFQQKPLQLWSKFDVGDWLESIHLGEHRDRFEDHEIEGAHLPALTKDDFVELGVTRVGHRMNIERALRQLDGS

Row | Classification [1] | Compound | Classification [2] | Classification [3]
1 |  | CC(C)C[C@H](NC(=O)[C@H](CCCNC(=N)N)NC(=O)CNC(=O)CNC(=O)[C@H](CCCNC(=N)N)NC(=O)[C@H](C)NC(=O)[C@@H]1CCCN1C(=O)[C@H](CCCNC(=N)N)NC(=O)CNC(=O)CNC(=O)[C@@H](NC(=O)[C@H](C)NC(=O)CCCC[C@@H]1SC[C@@H]2NC(=O)N[C@@H]21)C(C)C)C(=O)N[C@@H](CCC(N)=O)C(=O)NCC(=O)N[C@@H](CCCNC(=N)N)C(=O)N[C@@H](CCCNC(=N)N)C(=O)N[C@@H](CCC(N)=O)C(=O)N[C@H](C(=O)N[C@@H](CCC(N)=O)C(=O)N[C@H](C(=O)O)C(C)C)[C@@H](C)O [HPV E6 58 (modified)] (Biotin-AVGGRPARGGRLQGRRQTQV-OH; C-terminus assumed) | 1 (A450 nm 0-1) | 
2 |  | CSCC[C@H](NC(=O)[C@H](C)NC(=O)[C@H](CCCNC(=N)N)NC(=O)CNC(=O)[C@@H](NC(=O)[C@H](Cc1c[nH]c2ccccc12)NC(=O)[C@H](CCCNC(=N)N)NC(=O)CNC(=O)CCCC[C@@H]1SC[C@@H]2NC(=O)N[C@@H]21)[C@@H](C)O)C(=O)N[C@@H](CO)C(=O)N[C@@H](C)C(=O)N[C@@H](Cc1c[nH]c2ccccc12)C(=O)N[C@@H](CCCCN)C(=O)N1CCC[C@H]1C(=O)N[C@H](C(=O)N[C@@H](CCCNC(=N)N)C(=O)N[C@@H](CCCNC(=N)N)C(=O)N[C@@H](CCC(=O)O)C(=O)N[C@H](C(=O)N[C@@H](CCC(=O)O)C(=O)N[C@H](C(=O)O)C(C)C)[C@@H](C)O)[C@@H](C)O [HPV E6 #35 (modified)] (Biotin-GRWTGRAMSAWKPTRRETEV-OH; C-terminus assumed) | 3 (A450 nm 2-3) | 3 (A450 nm 2-3)
3 |  | CC(C)C[C@H](NC(=O)[C@H](C)NC(=O)[C@H](CO)NC(=O)CNC(=O)[C@@H](NC(=O)CCCC[C@@H]1SC[C@@H]2NC(=O)N[C@@H]21)[C@@H](C)O)C(=O)N[C@@H](CCC(N)=O)C(=O)N[C@@H](C)C(=O)N[C@@H](Cc1c[nH]c2ccccc12)C(=O)N[C@@H](CCCNC(=N)N)C(=O)N[C@@H](Cc1c[nH]cn1)C(=O)N[C@H](C(=O)N[C@@H](CO)C(=O)N[C@@H](CCCNC(=N)N)C(=O)N[C@@H](CCC(N)=O)C(=O)N[C@@H](C)C(=O)N[C@H](C(=O)N[C@@H](CCC(=O)O)C(=O)N[C@@H](CO)C(=O)N[C@H](C(=O)N[C@H](C(=O)O)C(C)C)[C@@H](C)O)[C@@H](C)O)[C@@H](C)O [HPV E6 #66 (modified)] (Biotin-TGSALQAWRHTSRQATESTV-OH; C-terminus assumed) |  | 1 (A450 nm 0-1)
4 | 3 (A450 nm 2-3) | CC[C@H](C)[C@H](NC(=O)CNC(=O)[C@H](CO)NC(=O)[C@H](Cc1ccccc1)NC(=O)[C@@H](NC(=O)[C@H](CS)NC(=O)CNC(=O)CNC(=O)[C@H](C)NC(=O)[C@@H]1CCCN1C(=O)[C@@H](NC(=O)[C@@H]1CCCN1C(=O)CCCC[C@@H]1SC[C@@H]2NC(=O)N[C@@H]21)[C@@H](C)CC)[C@@H](C)O)C(=O)N[C@@H](Cc1ccccc1)C(=O)N1CCC[C@H]1C(=O)N[C@H](C(=O)N[C@@H](CC(C)C)C(=O)N[C@H](C(=O)N[C@@H](CO)C(=O)N1CCC[C@H]1C(=O)N[C@@H](CC(C)C)C(=O)O)[C@@H](C)O)[C@@H](C)O [KIA 1481] (Biotin-PIPAGGCTFSGIFPTLTSPL-OH; C-terminus assumed) |  | 
5 | 3 (A450 nm 2-3) | CC(C)C[C@H](NC(=O)CNC(=O)[C@@H](NC(=O)[C@H](CO)NC(=O)[C@H](CC(N)=O)NC(=O)[C@H](Cc1ccccc1)NC(=O)CNC(=O)[C@H](C)NC(=O)[C@H](C)NC(=O)[C@H](Cc1ccccc1)NC(=O)[C@@H](NC(=O)CCCC[C@@H]1SC[C@@H]2NC(=O)N[C@@H]21)[C@@H](C)O)[C@@H](C)O)C(=O)N1CCC[C@H]1C(=O)N[C@@H](Cc1c[nH]cn1)C(=O)N[C@@H](CO)C(=O)N[C@H](C(=O)N[C@H](C(=O)N[C@@H](CCCNC(=N)N)C(=O)N[C@H](C(=O)O)C(C)C)[C@@H](C)O)[C@@H](C)O [Neuroligin] (Biotin-TFAAGFNSTGLPHSTTRV-OH; C-terminus assumed) |  | 
6 |  | CC[C@H](C)[C@H](NC(=O)[C@H](CCC(N)=O)NC(=O)CCCC[C@@H]1SC[C@@H]2NC(=O)N[C@@H]21)C(=O)N[C@@H](CO)C(=O)N1CCC[C@H]1C(=O)NCC(=O)NCC(=O)N[C@@H](CC(C)C)C(=O)N[C@@H](CCC(=O)O)C(=O)N1CCC[C@H]1C(=O)N1CCC[C@H]1C(=O)N[C@@H](CO)C(=O)N[C@@H](CCC(=O)O)C(=O)N[C@@H](CCCCN)C(=O)N[C@@H](Cc1c[nH]cn1)C(=O)N[C@@H](Cc1ccccc1)C(=O)N[C@@H](CCCNC(=N)N)C(=O)N[C@@H](CCC(=O)O)C(=O)N[C@H](C(=O)N[C@@H](CCC(=O)O)C(=O)N[C@H](C(=O)O)C(C)C)[C@@H](C)O [Tax] |  | 1 (A450 nm 0-1)
7 |  | CC[C@H](C)[C@H](NC(=O)[C@H](C)NC(=O)[C@H](CC(C)C)NC(=O)[C@H](Cc1c[nH]c2ccccc12)NC(=O)[C@H](Cc1c[nH]cn1)NC(=O)[C@H](CCC(N)=O)NC(=O)[C@H](CC(C)C)NC(=O)[C@H](CCC(N)=O)NC(=O)[C@H](Cc1ccccc1)NC(=O)[C@H](CCC(N)=O)NC(=O)[C@H](CCCNC(=N)N)NC(=O)[C@@H](NC(=O)[C@H](CC(=O)O)NC(=O)[C@H](CCCNC(=N)N)NC(=O)[C@H](CCC(N)=O)NC(=O)[C@H](C)NC(=O)[C@@H](NC(=O)[C@H](CC(C)C)NC(=O)[C@H](Cc1c[nH]cn1)NC(=O)[C@H](Cc1c[nH]cn1)NC(=O)CCCC[C@@H]1SC[C@@H]2NC(=O)N[C@@H]21)C(C)C)[C@@H](C)CC)C(=O)O [noradrenaline transporter] (Biotin-HHLVAQRDIRQFQLQHWLAI-OH; C-terminus assumed) | 1 (A450 nm 0-1) | 
8 |  | ARHRVTSYTSSSVNVSSNL (Biotin-ARHRVTSYTSSSVNVSSNL) [IL-8RB] | 1 (A450 nm 0-1) | 
9 | 1 (A450 nm 0-1) | LASKSAEEGKQIPDSLSTDL (Biotin-LASKSAEEGKQIPDSLSTDL) [Dock2] |  | 
10 | 5 (A450 nm of 4 more than 2× repeated) | PPATPSPRLALPAHHNATRL (Biotin-PPATPSPRLALPAHHNATRL) [Na+/Pi cotransporter 2] |  | 1 (A450 nm 0-1)
11 |  | RNIEEVYVGGKQVVPFSSSV (Biotin-RNIEEVYVGGKQVVPFSSSV) [Nedasin (s-form)] | 1 (A450 nm 0-1) | 
12 |  | TQGFPGPATWRRISSLESEV | 1 (A450 nm 0-1) | 2 (A450 nm 1-2)

Row | Compound | Classification [1] | Classification [2] | Classification [3]
13 | CC[C@H](C)[C@H](NC(=O)[C@H](CC(=O)O)NC(=O)[C@H](CCC(=O)O)NC(=O)[C@H](CCCNC(=N)N)NC(=O)[C@@H](NC(=O)CCCC[C@@H]1SC[C@@H]2NC(=O)N[C@@H]21)[C@@H](C)O)C(=O)N[C@@H](Cc1ccc(O)cc1)C(=O)N[C@H](C(=O)N[C@@H](CC(N)=O)C(=O)N[C@@H](Cc1ccc(O)cc1)C(=O)N1CCC[C@H]1C(=O)N[C@H](C(=O)N[C@@H](Cc1ccccc1)C(=O)N[C@@H](CO)C(=O)N[C@@H](CCCNC(=N)N)C(=O)N[C@@H](CCCNC(=N)N)C(=O)N1CCC[C@H]1C(=O)N[C@@H](CCCCN)C(=O)N[C@H](C(=O)N[C@@H](CCCNC(=N)N)C(=O)N[C@H](C(=O)O)C(C)C)[C@@H](C)O)[C@@H](C)O)C(C)C [DNAM-1] (Biotin-TREDIYVNYPTFSRRPKTRV-OH; C-terminus assumed) | 2 (A450 nm 1-2) |  | 
